Reference: PMC3787104, “A Purine Analog Synergizes with Chloroquine (CQ) by Targeting Plasmodium falciparum Hsp90 (PfHsp90)” (PLoS ONE, 2013)

Columns and labels:
[1] = molecular target: T1, P. falciparum Hsp90 (PfHsp90, PF07_0029) (Plasmodium falciparum, UniProt Q8IC05); experiment: SPR (Biacore X), positive control; also full-length ATPase inhibition, […]; type: binding; set-up: gene PF3D7_0708400; full length also tested in ATPase assay
Target sequence in this assay (Q8IC05 entry or part of it): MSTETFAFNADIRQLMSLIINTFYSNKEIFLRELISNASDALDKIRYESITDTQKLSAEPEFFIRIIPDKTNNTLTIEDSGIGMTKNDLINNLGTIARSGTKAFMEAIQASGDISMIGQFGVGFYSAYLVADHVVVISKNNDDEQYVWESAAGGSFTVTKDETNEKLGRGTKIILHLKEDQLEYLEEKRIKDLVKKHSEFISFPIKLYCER

[2] = molecular target: T1, P. falciparum Hsp90 (PfHsp90, PF07_0029); experiment: coupled LDH/NADH ATPase assay, positive control; type: biochemical; set-up: gene PF3D7_0708400; full-length PfHsp90
Target sequence in this assay (Q8IC05 1-745): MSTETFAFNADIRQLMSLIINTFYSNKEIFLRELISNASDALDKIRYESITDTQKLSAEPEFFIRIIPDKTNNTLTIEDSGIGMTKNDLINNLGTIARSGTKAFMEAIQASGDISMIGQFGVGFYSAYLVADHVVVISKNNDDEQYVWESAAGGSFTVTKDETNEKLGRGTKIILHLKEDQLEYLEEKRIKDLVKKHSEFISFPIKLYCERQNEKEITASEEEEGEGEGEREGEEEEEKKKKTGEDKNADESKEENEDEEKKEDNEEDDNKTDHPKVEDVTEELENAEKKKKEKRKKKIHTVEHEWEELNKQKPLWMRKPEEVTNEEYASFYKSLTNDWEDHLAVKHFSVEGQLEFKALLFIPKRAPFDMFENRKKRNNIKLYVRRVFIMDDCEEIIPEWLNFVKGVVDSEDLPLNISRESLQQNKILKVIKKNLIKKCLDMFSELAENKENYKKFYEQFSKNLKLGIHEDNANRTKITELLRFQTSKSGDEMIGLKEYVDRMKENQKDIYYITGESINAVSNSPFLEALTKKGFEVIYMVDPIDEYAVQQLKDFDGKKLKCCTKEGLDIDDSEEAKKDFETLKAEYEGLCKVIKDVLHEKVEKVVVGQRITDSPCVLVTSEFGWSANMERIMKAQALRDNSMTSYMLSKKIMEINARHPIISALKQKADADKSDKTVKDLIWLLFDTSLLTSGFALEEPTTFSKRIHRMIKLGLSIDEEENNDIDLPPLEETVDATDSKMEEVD

Structure (SMILES)	Kd [1]	IC50 [2]
C=CCNC1=C2C[C@@H](C)C[C@H](OC)[C@H](O)[C@@H](C)/C=C(\C)[C@H](OC(N)=O)[C@@H](OC)/C=C\C=C(/C)C(=O)NC(=CC1=O)C2=O [17-AAG]	105 ± 0.33 µM	–
C[C@@H]1C[C@H]2O[C@@H]2/C=C\C=C\C(=O)Cc2c(Cl)c(O)cc(O)c2C(=O)O1 [radicicol]	–	0.144 µM
